pIC50: −log10 of the molar value. The source made the active and inactive calls. The rule behind the calls is not given here.
Assays:
[1] = system: RAW264.7; assay: Inhibition COX2 mRNA expression levels in LPS-induced mouse RAW264.7 cells at 1 to 4 uM by RT-PCR analysis; assay type: functional, cell-based
[2] = system: RAW264.7; assay: Antiinflammatory activity in mouse RAW264.7 cells assessed as inhibition of LPS-induced nitric oxide production preincubated for 1 hr followed by LPS stimulation for 24 hrs by Griess method; assay type: functional, cell-based
[3] = system: RAW264.7; assay: Inhibition iNOS mRNA expression levels in LPS-induced mouse RAW264.7 cells at 1 to 4 uM by RT-PCR analysis; assay type: functional, cell-based
[4] = system: RAW264.7; assay: Inhibition COX2 protein expression levels in LPS-induced mouse RAW264.7 cells at 1 to 4 uM by Western blot analysis; assay type: functional, cell-based
[5] = system: RAW264.7; assay: Inhibition iNOS protein expression levels in LPS-induced mouse RAW264.7 cells at 1 to 4 uM by Western blot analysis; assay type: functional, cell-based
[6] = system: RAW264.7; assay: Cytotoxicity against mouse RAW264.7 cells assessed as reduction in cell viability at 100 uM after 72 hrs by MTT assay; assay type: cell-based; details: raw264.7, 72 h
[7] = system: RAW264.7; assay: Antiinflammatory activity in mouse RAW264.7 cells assessed as inhibition of LPS-induced nitric oxide production at 50 uM preincubated for 1 hr followed by LPS stimulation for 24 hrs by Griess method; assay type: functional
[8] = system: RAW264.7; assay: Inhibition iNOS mRNA expression levels in LPS-induced mouse RAW264.7 cells at 4 uM by RT-PCR analysis; assay type: functional, cell-based
[9] = system: RAW264.7; assay: Inhibition iNOS protein expression levels in LPS-induced mouse RAW264.7 cells at 4 uM by Western blot analysis; assay type: functional, cell-based

pIC50 [2] | Structure (SMILES) | inhibition [1] | inhibition [3] | inhibition [4] | inhibition [5] | Activity [6] | inhibition at 50 µM [7] [%] | inhibition [8] | inhibition [9]
5.68 | COC1=CC(=O)C(CC=C(C)C)(CC=C(C)C)C(=O)/C1=C(N)\C=C\c1ccccc1 | inactive | Active | inactive | Active | Non-Toxic | > 50 | – | –
– | CC(=N)NCc1cccc(CN)c1 | – | – | – | – | – | – | Active | Active
4.45 | COc1cc(OC)c2c(=O)c(-c3cc(OC)c(OCC=C(C)C)cc3OC)coc2c1 | – | – | – | – | Non-Toxic | > 50 | – | –
4.69 | COC1=CC(=O)C(CC=C(C)C)(CC=C(C)C)C2=C1C(=O)C[C@@H](c1ccccc1)O2 | – | – | – | – | Non-Toxic | > 50 | – | –
